Tests used:
Format in all cases: cell-based
[1] = molecular target: T1, hCB1 mutant S173A^2.60 (Homo sapiens, UniProt P21554, S173A); assay: pIRES G protein dissociation BRET assay, S173A mutant; conditions: for G protein dissociation, AUC of 10 μM compound (maximal response): 10 μM ligand alone
T1 construct: expressed in transfected cells; host or cells: HEK293
Experimental: (§1) Mutagenesis studies using the pIRES G protein dissociation assay were performed using human embryonic kidney 293 (HEK293) wild-type cells transiently transfected with pplss-3HA-hCB1 [31] or modified receptor. All cells were cultured in Dulbecco’s Modified Eagle’s Medium (DMEM) supplemented with 10% fetal bovine serum (FBS), grown in […] vented-cap flasks, and maintained in a 37° C incubator at 5% CO2.
(§2) Mutants of pplss-3HA-hCB1 (WT, pEF-V4-HisA (pEF4a) construct) were generated using a modified QuikChange® (Stratagene, San Diego, CA, USA) site-directed mutagenesis approach using KAPA HiFi Hotstart Polymerase (KAPA Biosystems, Roche, Basel, Switzerland). Briefly, single-stranded primers used to modify one or two base pairs within the target amino acid using PCR were purchased from Integrated DNA Technologies (IDT, Coralville, IA, USA). All pplss-hCB1 mutants were generated using the pplss-3HA-hCB1 pEF4a as parental DNA. PCR products were generated using recommended cycling conditions and treated with Dpn1 (New England Biolabs, Ipswich, MA, USA) overnight at 37° C to digest methylated parental DNA. PCR products were electrophoresed and run on an agarose gel (1% (w.v^−1) agarose, HydraGene, Piscataway, NJ, USA) containing 0.25 μg/mL ethidium bromide (Sigma-Aldrich, St. Louis, MO, USA). Gels were run in 40 mM TRIS-acetate buffer containing […] (pH 8.3) at 100 V for 30 min, maximum current and included a 1kb+ DNA ladder (Invitrogen, Thermo Fisher Scientific, Carlsbad, CA, USA) for reference. Gels were imaged using an UVTech Alliance Q9 Mini transilluminator (UVTech Alliance, Cambridge, UK). Digested products were then used to transform NEB 5α competent E. coli cells in accordance with manufacturer’s instructions. Briefly, transformed PCR products were grown overnight on 8.5 mL Luria Broth agar plates (containing 100 μg/mL ampicillin) at 37° C. Single bacterial colonies were picked and inoculated in Luria Broth (containing 100 μg/mL ampicillin) and grown overnight in a shaking incubator at 37° C. Plasmids were then harvested and purified using a Qiagen miniprep kit (Qiagen, Hilden, Germany) and validated using sequencing (Genetics Analysis Service, University of Otago, Dunedin, New Zealand).
(§3) Dissociation of the G protein heterotrimer, specifically Gαi1, Gβ1, and Gγ2, was investigated using a bioluminescence resonance energy transfer (BRET) assay with the pIRES biosensor first described by and adapted by.
(§4) Briefly, 3 × 10^6 WT HEK293 cells were seeded into 10 cm culture dishes (Corning, Corning, NY, USA; one dish for the control receptor and one for each modified receptor) and incubated at 37 °C for 24 h to gain 50–60% confluency. Culture medium was then replaced and transfection mixtures containing 3 μg pIRES vector and 1 μg receptor (either pplss-hCB1 or modified receptor) were prepared (4 μg total DNA). Plasmids were initially diluted in sterile Milli-Q water before being diluted in OptiMEM reduced serum medium (Thermo Fisher Scientific, Waltham, MA, USA) and combined with […] polyethylenimine (PEI)-max (1:9 DNA:PEI-max ratio) and incubated at room temperature for 20 min. Transfection mixtures were then added to cells via dropwise addition, and cells were incubated at 37 °C for 24 h. Transfected cells were lifted and plated at 50,000 cells/well into poly-d-lysine (PDL; Sigma-Aldrich) coated white 96-well CulturPlates (PerkinElmer, Waltham, MA, USA) and incubated for a further 24 h at 37 °C.
(§5) To assay, the culture medium was aspirated and cells were washed with phosphate buffered saline (PBS) and replaced with BRET assay medium (phenol red free DMEM containing 25 mM HEPES and supplemented with 1 mg/mL bovine serum albumin; BSA, MP Biomedicals, Auckland, New Zealand) for 30 min prior to drug addition (serum starve). Drugs were prepared at 10 × concentration in BRET assay medium, combined in a polypropylene V-bottom plate, and incubated at 37° C prior to drug stimulation.

[2] = molecular target: T2, hCB1 mutant I245A^4.54 (Homo sapiens, UniProt P21554, I245A); assay: pIRES G protein dissociation BRET assay, I245A mutant
T2 construct: expressed in transfected cells; host or cells: HEK293
T2 sequence (P21554 whole entry I245A): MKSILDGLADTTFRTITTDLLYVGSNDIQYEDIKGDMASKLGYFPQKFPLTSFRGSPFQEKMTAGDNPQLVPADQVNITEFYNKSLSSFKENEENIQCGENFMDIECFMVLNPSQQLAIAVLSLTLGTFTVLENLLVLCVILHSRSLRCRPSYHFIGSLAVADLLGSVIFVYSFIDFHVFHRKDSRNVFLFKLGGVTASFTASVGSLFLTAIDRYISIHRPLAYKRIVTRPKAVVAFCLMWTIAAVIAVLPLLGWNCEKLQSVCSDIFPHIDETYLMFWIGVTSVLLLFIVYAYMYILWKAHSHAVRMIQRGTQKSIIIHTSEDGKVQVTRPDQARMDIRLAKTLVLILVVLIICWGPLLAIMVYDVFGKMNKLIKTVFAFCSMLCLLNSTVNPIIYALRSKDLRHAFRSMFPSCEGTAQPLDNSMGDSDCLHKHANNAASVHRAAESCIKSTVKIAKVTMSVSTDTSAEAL
Experimental: as §1, §2, §3, §4, §5

[3] = molecular target: T3, hCB1 mutant R220A^3.56 (Homo sapiens, UniProt P21554, R220A); assay: pIRES G protein dissociation BRET assay, R220A mutant; conditions: for G protein dissociation, AUC of 10 μM compound (maximal response): 10 μM ligand alone
T3 construct: expressed in transfected cells; host or cells: HEK293
T3 sequence (P21554 whole entry R220A): as the sequence (P21554 whole entry I245A) above, with R220A, A245I counted along it
Experimental: as §1, §2, §3, §4, §5

[4] = molecular target: T4, hCB1 mutant Y172A^2.59 (Homo sapiens, UniProt P21554, Y172A); assay: pIRES G protein dissociation BRET assay, Y172A mutant; conditions: for G protein dissociation, AUC of 10 μM compound (maximal response): 10 μM ligand alone
T4 construct: expressed in transfected cells; host or cells: HEK293
T4 sequence (P21554 whole entry Y172A): as the sequence (P21554 whole entry I245A) above, with Y172A, A245I counted along it
Experimental: as §1, §2, §3, §4, §5

[5] = molecular target: T5, hCB1 mutant F191A^3.27 (Homo sapiens, UniProt P21554, F191A); assay: pIRES G protein dissociation BRET assay, F191A mutant; conditions: for G protein dissociation, AUC of 10 μM compound (maximal response): 10 μM ligand alone
T5 construct: expressed in transfected cells; host or cells: HEK293
T5 sequence (P21554 whole entry F191A): as the sequence (P21554 whole entry I245A) above, with F191A, A245I counted along it
Experimental: as §1, §2, §3, §4, §5

[6] = molecular target: T6, hCB1 mutant F237A^4.46 (Homo sapiens, UniProt P21554, F237A); assay: pIRES G protein dissociation BRET assay, F237A mutant; conditions: for G protein dissociation, AUC of 10 μM compound (maximal response): 10 μM ligand alone
T6 construct: expressed in transfected cells; host or cells: HEK293
T6 sequence (P21554 whole entry F237A): as the sequence (P21554 whole entry I245A) above, with F237A, A245I counted along it
Experimental: as §1, §2, §3, §4, §5

[7] = molecular target: T7, hCB1 mutant H154A^2.41 (Homo sapiens, UniProt P21554, H154A); assay: pIRES G protein dissociation BRET assay, H154A mutant
T7 construct: expressed in transfected cells; host or cells: HEK293
T7 sequence (P21554 whole entry H154A): as the sequence (P21554 whole entry I245A) above, with H154A, A245I counted along it
Experimental: as §1, §2, §3, §4, §5

[8] = molecular target: T8, hCB1 mutant L404A^8.50 (Homo sapiens, UniProt P21554, L404A); assay: pIRES G protein dissociation BRET assay, L404A mutant; conditions: for G protein dissociation, AUC of 10 μM compound (maximal response): 10 μM ligand alone
T8 construct: expressed in transfected cells; host or cells: HEK293
T8 sequence (P21554 whole entry L404A): as the sequence (P21554 whole entry I245A) above, with A245I, L404A counted along it
Experimental: as §1, §2, §3, §4, §5

[9] = molecular target: T9, hCB1 mutant F289A^5.53 (Homo sapiens, UniProt P21554, F289A); assay: pIRES G protein dissociation BRET assay, F289A mutant
T9 construct: expressed in transfected cells; host or cells: HEK293
T9 sequence (P21554 whole entry F289A): as the sequence (P21554 whole entry I245A) above, with A245I, F289A counted along it
Experimental: as §1, §2, §3, §4, §5

[10] = 10 μM CP55940 in the presence of 10 μM ZCZ011
[11] = in the presence of 10 μM GAT228
[12] = in the presence of 10 μM GAT229
[13] = top of the curve (maximal response)

T1 sequence (P21554 whole entry S173A): as the sequence (P21554 whole entry I245A) above, with S173A, A245I counted along it

SMILES: CCCCCCC(C)(C)c1ccc([C@@H]2C[C@H](O)CC[C@H]2CCCO)c(O)c1 [CP55940]
- G protein dissociation, AUC, 10 μM CP55940 + 10 μM ZCZ011 [1, 10]: −186.8 ± 5.5
- G protein dissociation, AUC of 10 μM compound (maximal response) [1]: −146.2 ± 5.5
- EMAX, CP55940 + 10 μM GAT228 [1, 11]: −176.1 ± 6.9 ∆BRET.sec
- EMAX, CP55940 + 10 μM GAT229 [1, 12]: −186.4 ± 7.5 ∆BRET.sec
- EMAX, CP55940 Alone [1, 13]: −143.0 ± 5.7 ∆BRET.sec
- G protein dissociation, AUC, 10 μM CP55940 + 10 μM ZCZ011 [2, 10]: −183.2 ± 7.2
- EMAX, CP55940 + 10 μM GAT228 [2, 11]: −163.7 ± 8.2 ∆BRET.sec
- EMAX, CP55940 + 10 μM GAT229 [2, 12]: −182.9 ± 7.0 ∆BRET.sec
- EMAX, CP55940 Alone [2, 13]: −150.1 ± 9.8 ∆BRET.sec
- G protein dissociation, AUC, 10 μM CP55940 + 10 μM ZCZ011 [3, 10]: −137.8 ± 5.0
- G protein dissociation, AUC of 10 μM compound (maximal response) [3]: −112.1 ± 2.9
- EMAX, CP55940 + 10 μM GAT228 [3, 11]: −140.1 ± 13.5 ∆BRET.sec
- EMAX, CP55940 + 10 μM GAT229 [3, 12]: −144.6 ± 10.4 ∆BRET.sec
- EMAX, CP55940 Alone [3, 13]: −110.8 ± 2.8 ∆BRET.sec
- G protein dissociation, AUC, 10 μM CP55940 + 10 μM ZCZ011 [4, 10]: −305.2 ± 5.7
- G protein dissociation, AUC of 10 μM compound (maximal response) [4]: −284.7 ± 8.4
- EMAX, CP55940 + 10 μM GAT228 [4, 11]: −298.9 ± 5.4 ∆BRET.sec
- EMAX, CP55940 + 10 μM GAT229 [4, 12]: −309.0 ± 3.5 ∆BRET.sec
- EMAX, CP55940 Alone [4, 13]: −273.2 ± 6.9 ∆BRET.sec
- G protein dissociation, AUC, 10 μM CP55940 + 10 μM ZCZ011 [5, 10]: −134.7 ± 12.4
- G protein dissociation, AUC of 10 μM compound (maximal response) [5]: −117.8 ± 7.5
- EMAX, CP55940 + 10 μM GAT228 [5, 11]: −123.9 ± 7.4 ∆BRET.sec
- EMAX, CP55940 + 10 μM GAT229 [5, 12]: −119.1 ± 7.8 ∆BRET.sec
- EMAX, CP55940 Alone [5, 13]: −117.3 ± 6.1 ∆BRET.sec
- G protein dissociation, AUC, 10 μM CP55940 + 10 μM ZCZ011 [6, 10]: −85.2 ± 9.9
- G protein dissociation, AUC of 10 μM compound (maximal response) [6]: −69.8 ± 6.5
- EMAX, CP55940 + 10 μM GAT228 [6, 11]: −69.4 ± 6.4 ∆BRET.sec
- EMAX, CP55940 + 10 μM GAT229 [6, 12]: −67.4 ± 8.3 ∆BRET.sec
- EMAX, CP55940 Alone [6, 13]: −69.8 ± 6.7 ∆BRET.sec
- G protein dissociation, AUC, 10 μM CP55940 + 10 μM ZCZ011 [7, 10]: −189.5 ± 8.5
- EMAX, CP55940 + 10 μM GAT228 [7, 11]: −200.5 ± 11.6 ∆BRET.sec
- EMAX, CP55940 + 10 μM GAT229 [7, 12]: −210.6 ± 10.1 ∆BRET.sec
- EMAX, CP55940 Alone [7, 13]: −151.8 ± 5.9 ∆BRET.sec
- G protein dissociation, AUC, 10 μM CP55940 + 10 μM ZCZ011 [8, 10]: −133.5 ± 5.6
- G protein dissociation, AUC of 10 μM compound (maximal response) [8]: −110.3 ± 3.7
- EMAX, CP55940 + 10 μM GAT228 [8, 11]: −115.1 ± 8.3 ∆BRET.sec
- EMAX, CP55940 + 10 μM GAT229 [8, 12]: −122.3 ± 7.0 ∆BRET.sec
- EMAX, CP55940 Alone [8, 13]: −103.1 ± 3.6 ∆BRET.sec
- G protein dissociation, AUC, 10 μM CP55940 + 10 μM ZCZ011 [9, 10]: −167.8 ± 6.9
- EMAX, CP55940 + 10 μM GAT228 [9, 11]: −156.7 ± 5.3 ∆BRET.sec
- EMAX, CP55940 + 10 μM GAT229 [9, 12]: −161.1 ± 6.5 ∆BRET.sec
- EMAX, CP55940 Alone [9, 13]: −145.4 ± 5.7 ∆BRET.sec

SMILES: O=[N+]([O-])C[C@H](c1ccccc1)c1c(-c2ccccc2)[nH]c2ccccc12 [GAT228]
- G protein dissociation, AUC of 10 μM compound (maximal response) [1]: −105.5 ± 7.6
- G protein dissociation, AUC of 10 μM compound (maximal response) ([2]; 10 μM ligand alone): −90.3 ± 8.5
- G protein dissociation, AUC of 10 μM compound (maximal response) [3]: −85.2 ± 13.6
- Increase in the potency of CP55940-induced G protein dissociation ([4]; 10 μM allosteric ligand): less than 0.5 log units
- G protein dissociation, AUC of 10 μM compound (maximal response) [4]: −133.4 ± 9.8
- G protein dissociation, AUC of 10 μM compound (maximal response) [5]: 19.5 ± 11.9
- Allosteric agonism: G protein dissociation in the absence of an orthosteric ligand ([5]; 10 μM, result in words): abolished
- G protein dissociation, AUC of 10 μM compound (maximal response) [6]: −40.8 ± 2.8
- G protein dissociation, AUC of 10 μM compound (maximal response) ([7]; 10 μM ligand alone): −101.6 ± 6.9
- G protein dissociation, AUC of 10 μM compound (maximal response) [8]: −63.2 ± 5.6
- G protein dissociation, AUC of 10 μM compound (maximal response) ([9]; 10 μM ligand alone): −97.4 ± 7.2

— PMC10892375, “Determination of the Cannabinoid CB1 Receptor’s Positive Allosteric Modulator Binding Site through Mutagenesis Studies” (Pharmaceuticals, 2024)
